The results in this text go back to patent US8946438B2, “Benzamides, production thereof, and use thereof as medicaments” (Boehringer Ingelheim International GmbH, priority 2008, dated 2015).

This assay has as its target p38 MAP-kinase (Homo sapiens, UniProt Q16539). Briefly: Enzymatic assay: inhibition of p38 MAP-kinase (phosphorylation of GST-tagged ATF2, chemoluminescence bead readout). The class given is biochemical. Particulars: inhibitor 1 μM, activated p38 MAP-kinase 1 nM, 4 h preincubation, ATP 100 μM, ATF2 10 nM; for inhibition at 1 µM: read-out: % inhibitory effect at 1 μM. As to the method:
In this, the amount of a substrate phosphorylated by the kinase is quantified. The test is carried out as follows:
The kinase reaction is carried out in the presence of HEPES (20 mM, pH 7), MgCl2 (10 mM), DTT (1 mM) and TWEEN20 (0.01%). First, dimethylsulphoxide or inhibitor (final concentration: 1 μM) dissolved in dimethylsulphoxide are placed in a reaction vessel. Then the activated p38 MAP-kinase (final concentration 1 nM) is added and the mixture is incubated for 4 h at ambient temperature. Then a mixture of substrate (GST-tagged ATF2) and ATP is added and everything is incubated together for a further hour (final concentration ATP: 100 μM; final concentration ATF2: 10 nM).
The concentration of phosphorylated ATF2 is quantified by chemoluminescence-induced light emission. For this, a glutathione donor bead (final concentration: 5 μg/ml) which binds to the gluthathione on the ATF2 and phospho-ATF2 antibodies are added to the reaction mixture (final concentration: 3 nM; this binds the phosphate group added by the kinase reaction) to which a Protein A Acceptor Bead (final concentration: 5 μg/ml) binds. These components are dissolved in a buffer which contains 20 mM HEPES pH 7.0, 200 mM NaCL, 80 mM EDTA as well as 0.3% BSA. This reaction mixture is incubated in the dark for 1 hour at ambient temperature. When these beads come physically close, visible light is emitted which is measured in a photometer at 520-620 nm.
To determine the inhibitory activity of the compounds according to the invention a calculation is made to determine the percentage by which the kinase activity is inhibited at a fixed inhibitor concentration of 1 μM. The maximum activity is determined by non-inhibited kinase. The minimum activity or nonspecific background activity is determined using a reaction mixture without kinase. […] Table 2 summarises the degree of inhibition of the enzyme p38 MAP-kinase—as described hereinbefore—of the compounds according to the invention detailed in the section “Preparation of the final compounds”.

Chain of p38 MAP-kinase (Q16539 whole entry): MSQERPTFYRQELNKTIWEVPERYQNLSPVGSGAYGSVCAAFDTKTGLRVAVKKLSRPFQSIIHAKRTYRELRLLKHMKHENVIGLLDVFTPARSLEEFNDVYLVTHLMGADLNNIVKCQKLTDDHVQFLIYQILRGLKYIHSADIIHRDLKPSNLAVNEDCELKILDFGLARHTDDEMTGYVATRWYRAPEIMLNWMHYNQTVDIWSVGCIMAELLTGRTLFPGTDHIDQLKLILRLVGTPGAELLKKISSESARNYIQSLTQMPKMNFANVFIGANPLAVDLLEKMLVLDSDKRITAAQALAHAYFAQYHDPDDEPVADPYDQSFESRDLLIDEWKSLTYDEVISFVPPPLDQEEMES

Take `COc1c(NC(=O)c2ccc(Br)c(Oc3ccnc(N4CCNCC4)n3)c2)cc(C(C)(C)C)cc1NS(C)(=O)=O` [5(11), N-(5-tert-butyl-3-methanesulphonylamino-2-methoxy-phenyl)-4-bromo-3-(2-piperazin-1-yl-pyrimidin-4-yloxy)-benzamide]: the inhibition at 1 µM stood at 98.4%. The same measure, in the same setting: then `COc1c(NC(=O)c2cc(Cl)c(C)c(Oc3ccnc(N4CCNCC4)n3)c2)cc(C(C)(C)C)cc1NS(C)(=O)=O` [5(12), N-(5-tert-butyl-3-methanesulphonylamino-2-methoxy-phenyl)-3-chloro-4-methyl-5-(2-piperazin-1-yl-pyrimidin-4-yloxy)-benzamide], with 98.6%; and `COc1c(NC(=O)c2cc(F)c(C)c(Oc3ccnc(N4CCNCC4)n3)c2)cc(C(C)(C)C)cc1NS(C)(=O)=O` [5(13), N-(5-tert-butyl-3-methanesulphonylamino-2-methoxy-phenyl)-3-fluoro-4-methyl-5-(2-piperazin-1-yl-pyrimidin-4-yloxy)-benzamide], with 98.2%; and `COc1c(NC(=O)c2ccc(C)c(Oc3ccnc(N(C)C4CCNCC4)n3)c2)cc(C(C)(C)C)cc1NS(C)(=O)=O` [5(14), N-(5-tert-butyl-3-methanesulphonylamino-2-methoxy-phenyl)-4-methyl-3-[2-(N-methyl-N-piperidin-4-yl-amino)-pyrimidin-4-yloxy]-benzamide], with 98.5%. Take `CCc1ccc(C(=O)Nc2cc(C(C)(C)C)cc(NS(C)(=O)=O)c2OC)cc1Oc1ccnc(N2CCNCC2)n1` [5(15), N-(5-tert-butyl-3-methanesulphonylamino-2-methoxy-phenyl)-4-ethyl-5-(2-piperazin-1-yl-pyrimidin-4-yloxy)-benzamide]: the inhibition at 1 µM was 96%. `COc1c(NC(=O)c2ccc(C)c(Oc3ccnc(NC4CCNCC4)n3)c2)cc(C(C)(C)C)cc1NS(C)(=O)=O` [5(16), N-(5-tert-butyl-3-methanesulphonylamino-2-methoxy-phenyl)-4-methyl-3-[2-(piperidin-4-ylamino)-pyrimidin-4-yloxy]-benzamide]: the inhibition at 1 µM is 98.9%. Same read-out and setting: then `COc1c(NC(=O)c2ccc(C)c(Oc3cc(NC4CCNCC4)ncn3)c2)cc(C(C)(C)C)cc1NS(C)(=O)=O` [5(17), N-(5-tert-butyl-3-methanesulphonylamino-2-methoxy-phenyl)-4-methyl-3-[6-(piperidin-4-ylamino)-pyrimidin-4-yloxy]-benzamide x trifluoroacetic acid], with 98.2%; and `COc1c(NC(=O)c2ccc(C)c(Oc3cc(CC4CCNCC4)ncn3)c2)cc(C(C)(C)C)cc1NS(C)(=O)=O` [5(18), N-(5-tert-butyl-3-methanesulphonylamino-2-methoxy-phenyl)-4-methyl-3-(6-piperidin-4-ylmethyl-pyrimidin-4-yloxy)-benzamide], with 98.7%. Consider `COc1c(NC(=O)c2ccc(C)c(Oc3ccnc(CC4CCNCC4)n3)c2)cc(C(C)(C)C)cc1NS(C)(=O)=O` [5(19), N-(5-tert-butyl-3-methanesulphonylamino-2-methoxy-phenyl)-4-methyl-3-(2-piperidin-4-ylmethyl-pyrimidin-4-yloxy)-benzamide], for which the inhibition at 1 µM was 99.7%. On to `COc1c(NC(=O)c2ccc(C)c(Oc3ccnc(CC4CCNCC4)c3)c2)cc(C(C)(C)C)cc1NS(C)(=O)=O` [5(20), N-(5-tert-butyl-3-methanesulphonylamino-2-methoxy-phenyl)-4-methyl-3-(2-piperidin-4-ylmethyl-pyridin-4-yloxy)-benzamide], for which the inhibition at 1 µM worked out at 99.5%.

Turning to `COc1c(NC(=O)c2cc(C)cc(Oc3ccnc(C(=O)N4CCNCC4)n3)c2)cc(C(C)(C)C)cc1NS(C)(=O)=O` [5(21), N-(5-tert-butyl-3-methanesulphonylamino-2-methoxy-phenyl)-3-methyl-5-[2-(piperazine-1-carbonyl)-pyrimidin-4-yloxy]-benzamide x trifluoroacetic acid], the inhibition at 1 µM was 88.9%. For the compound `COc1c(NC(=O)c2cc(C)cc(Oc3ccnc(CN4CCNCC4)n3)c2)cc(C(C)(C)C)cc1NS(C)(=O)=O` [5(22), N-(5-tert-butyl-3-methanesulphonylamino-2-methoxy-phenyl)-3-methyl-5-(2-piperazin-1-ylmethyl-pyrimidin-4-yloxy)-benzamide], the inhibition at 1 µM was found to be 85.7%. For the compound `COc1c(NC(=O)c2ccc(C)c(Oc3ccnc(NC4CCNC4)n3)c2)cc(C(C)(C)C)cc1NS(C)(=O)=O` (stereo not drawn) [5(23), N-(5-tert-butyl-3-methanesulphonylamino-2-methoxy-phenyl)-4-methyl-3-[2-(pyrrolidin-3-ylamino)-pyrimidin-4-yloxy]-benzamide], the inhibition at 1 µM turned out to be 98.3%.

Take `COc1c(NC(=O)c2ccc(C)c(Oc3ccnc(N(C)C4CCNC4)n3)c2)cc(C(C)(C)C)cc1NS(C)(=O)=O` (stereo not drawn) [5(24), N-(5-tert-butyl-3-methanesulphonylamino-2-methoxy-phenyl)-4-methyl-3-[2-(methyl-pyrrolidin-3-yl-amino)-pyrimidin-4-yloxy]-benzamide]: the inhibition at 1 µM amounted to 97.9%.

Regarding `COc1c(NC(=O)c2ccc(C)c(Oc3ccnc(N(C)C4CCNCC4)n3)c2)cc(C(C)(C)C)cc1NS(C)(=O)=O` [5(25), N-(5-tert-butyl-3-methanesulphonylamino-2-methoxy-phenyl)-4-methyl-3-[2-(methyl-piperidin-4-yl-amino)-pyrimidin-4-yloxy]-benzamide], the “% inhibitory effect at 1 μM” value is on record as 97.6%.

As for `COc1c(NC(=O)c2ccc(C)c(Oc3cc(NC4CCNC4)ncn3)c2)cc(C(C)(C)C)cc1NS(C)(=O)=O` (stereo not drawn) [5(26), N-(5-tert-butyl-3-methanesulphonylamino-2-methoxy-phenyl)-4-methyl-3-[6-(pyrrolidin-3-ylamino)-pyrimidin-4-yloxy]-benzamide], the inhibition at 1 µM came to 97.6%. For the compound `COc1c(NC(=O)c2ccc(Cl)c(Oc3ccnc(NC4CCNCC4)n3)c2)cc(C(C)(C)C)cc1NS(C)(=O)=O` [5(28), N-(5-tert-butyl-3-methanesulphonylamino-2-methoxy-phenyl)-4-chloro-3-[2-(piperidin-4-ylamino)-pyrimidin-4-yloxy]-benzamide], the inhibition at 1 µM was determined as 99%. With `COc1c(NC(=O)c2ccc(Cl)c(Oc3ccnc(CC4CCNCC4)c3)c2)cc(C(C)(C)C)cc1NS(C)(=O)=O` [5(29), N-(5-tert-butyl-3-methanesulphonylamino-2-methoxy-phenyl)-4-chloro-3-(2-piperidin-4-ylmethyl-pyridin-4-yloxy)-benzamide], the inhibition at 1 µM came to 99%. As to `COc1c(NC(=O)c2ccc(Cl)c(Oc3ccnc(CC4CCNCC4)n3)c2)cc(C(C)(C)C)cc1NS(C)(=O)=O` [5(30), N-(5-tert-butyl-3-methanesulphonylamino-2-methoxy-phenyl)-4-chloro-3-(2-piperidin-4-ylmethyl-pyrimidin-4-yloxy)-benzamide], the inhibition at 1 µM stood at 99%. For the compound `COc1c(NC(=O)c2ccc(Cl)c(Oc3ccnc(NC4CCNCC4)c3)c2)cc(C(C)(C)C)cc1NS(C)(=O)=O` [5(31), N-(5-tert-butyl-3-methanesulphonylamino-2-methoxy-phenyl)-4-chloro-3-[2-(piperidin-4-ylamino)-pyridin-4-yloxy]-benzamide], the inhibition at 1 µM was determined as 99.4%.

With `COc1c(NC(=O)c2ccc(Cl)c(Oc3cc(CN4CCNCC4)ncn3)c2)cc(C(C)(C)C)cc1NS(C)(=O)=O` [5(32), N-(5-tert-butyl-3-methanesulphonylamino-2-methoxy-phenyl)-4-chloro-3-(6-piperazin-1-ylmethyl-pyrimidin-4-yloxy)-benzamide], the inhibition at 1 µM turned out to be 97.9%.

`COc1c(NC(=O)c2ccc(Cl)c(Oc3cc(CC4CCNCC4)ncn3)c2)cc(C(C)(C)C)cc1NS(C)(=O)=O` [5(33), N-(5-tert-butyl-3-methanesulphonylamino-2-methoxy-phenyl)-4-chloro-3-(6-piperidin-4-ylmethyl-pyrimidin-4-yloxy)-benzamide]: the inhibition at 1 µM amounted to 99.2%.

For the compound `COc1c(NC(=O)c2ccc(Cl)c(Oc3ccnc(CN4CCNCC4)c3)c2)cc(C(C)(C)C)cc1NS(C)(=O)=O` [5(34), N-(5-tert-butyl-3-methanesulphonylamino-2-methoxy-phenyl)-4-chloro-3-(2-piperazin-1-ylmethyl-pyridin-4-yloxy)-benzamide], the inhibition at 1 µM was found to be 99.1%. `COc1c(NC(=O)c2ccc(Cl)c(Oc3ccnc(CN4CCNCC4)n3)c2)cc(C(C)(C)C)cc1NS(C)(=O)=O` [5(35), N-(5-tert-butyl-3-methanesulphonylamino-2-methoxy-phenyl)-4-chloro-3-(2-piperazin-1-ylmethyl-pyrimidin-4-yloxy)-benzamide]: the inhibition at 1 µM stood at 98.3%.
